Data reported in patent US20250387353A1 (SpringWorks Therapeutics, Inc., priority 2024, published 2025).

Legend:
[1] = Pharmacokinetic parameters and characteristics of mirdametinib (Table A); format: in vivo, human; conditions: for Tmax [median (range)]: post dose
Experimental: (§1) Study treatment was administered orally at a twice daily (BID) dose specified in the table below. Dosing was on a 28-day Cycle (4-week course) with a 3 week on/1 week off schedule. The treatment period will last for up to 24 Cycles followed by a 30-day Safety Follow-Up period.

[2] = test system: NF1-associated plexiform neurofibromas (PN); assay: Phase 2b trial in adult and pediatric patients with NF1-associated inoperable plexiform neurofibromas; response by BICR volumetric MRI per REiNS criteria; format: in vivo, human; conditions: for DoR ≥12 months: Kaplan-Meier based approach, data cut-off September 2023
Experimental: Participants were screened (assessed for eligibility as described below). […] The median age was 34.5 years (range 18 to 69 years); 85% were white and 64% were female. […] The most commonly reported morbidities were pain (90%) and disfigurement or major deformity (52%).
The median age was 10 years (range 2 to 17 years); 66% were white and 54% were female. […] The most commonly reported morbidities were pain (70%) and disfigurement or major deformity (50%).
as §1
A partial response was defined as PN decrease≥20% compared to baseline using centrally read MRI volumetric analysis.
The major efficacy outcome measure was confirmed objective response rate (ORR), defined as the percentage of patients with complete response (disappearance of the target PN) or confirmed partial response (≥20% reduction in PN volume confirmed at a subsequent tumor assessment within 2-6 months during the 24-cycle treatment phase). Responses were assessed by blinded independent central review (BICR) using volumetric magnetic resonance imaging (MRI) analysis per Response Evaluation in Neurofibromatosis and Schwannomatosis (REINS) criteria. A secondary efficacy objective was to determine the duration of response for patients who achieved a confirmed objective response.

[3] = Pediatric patients (2 to <18 years)

O=C(NOC[C@H](O)CO)c1ccc(F)c(F)c1Nc1ccc(I)cc1F (single isomer, unassigned) [mirdametinib]
Steady-state exposure AUClast [geometric mean (geometric % CV)] ([1]; Adult patients (≥18 years)): Adult patients (≥18 years): 431 (43%) ng · h/mL | Steady-state exposure Cmax [geometric mean (geometric % CV)] ([1]; Adult patients (≥18 years)): Adult patients (≥18 years): 188 (52%) ng/mL | Tmax [median (range)] ([1]; Capsule): Capsule: 1.08 (0.00-4.17) hours post dose | Steady-state exposure AUClast [geometric mean (geometric % CV)] [1, 3]: Pediatric patients (2 to <18 years): 459 (46%) ng · h/mL | Steady-state exposure Cmax [geometric mean (geometric % CV)] [1, 3]: Pediatric patients (2 to <18 years): 191 (62%) ng/mL | Tmax [median (range)] ([1]; Tablet): Tablet: 0.83 (0.42-3.02) hours post dose | DoR ≥12 months ([2]; Adult responders): 18 (75%) n (%) | DoR ≥12 months ([2]; Pediatric responders): 22 (76%) n (%) | Median time to onset of response ([2]; adult cohort, range 4.0 to 19.0 months): 7.8 months | Median time to onset of response ([2]; pediatric cohort, range 4.1 to 18.8 months): 7.9 months
